Source: US11672794B2, “Therapeutic targeting of the BAP1 complex in cancer” (NORTHWESTERN UNIVERSITY, priority 2019, dated 2023)

Legend:
recombinant BAP1 = molecular target: T1, recombinant BAP1 (Homo sapiens, UniProt Q92560); test: Ub-AMC assay of BAP1 deubiquitinase activity; assay type: biochemical; settings: 100 nM Ub-AMC, 0.1 nM recombinant BAP1
T1 construct: made in house; host or cells: bacteria
T1 sequence (Q92560 1-729): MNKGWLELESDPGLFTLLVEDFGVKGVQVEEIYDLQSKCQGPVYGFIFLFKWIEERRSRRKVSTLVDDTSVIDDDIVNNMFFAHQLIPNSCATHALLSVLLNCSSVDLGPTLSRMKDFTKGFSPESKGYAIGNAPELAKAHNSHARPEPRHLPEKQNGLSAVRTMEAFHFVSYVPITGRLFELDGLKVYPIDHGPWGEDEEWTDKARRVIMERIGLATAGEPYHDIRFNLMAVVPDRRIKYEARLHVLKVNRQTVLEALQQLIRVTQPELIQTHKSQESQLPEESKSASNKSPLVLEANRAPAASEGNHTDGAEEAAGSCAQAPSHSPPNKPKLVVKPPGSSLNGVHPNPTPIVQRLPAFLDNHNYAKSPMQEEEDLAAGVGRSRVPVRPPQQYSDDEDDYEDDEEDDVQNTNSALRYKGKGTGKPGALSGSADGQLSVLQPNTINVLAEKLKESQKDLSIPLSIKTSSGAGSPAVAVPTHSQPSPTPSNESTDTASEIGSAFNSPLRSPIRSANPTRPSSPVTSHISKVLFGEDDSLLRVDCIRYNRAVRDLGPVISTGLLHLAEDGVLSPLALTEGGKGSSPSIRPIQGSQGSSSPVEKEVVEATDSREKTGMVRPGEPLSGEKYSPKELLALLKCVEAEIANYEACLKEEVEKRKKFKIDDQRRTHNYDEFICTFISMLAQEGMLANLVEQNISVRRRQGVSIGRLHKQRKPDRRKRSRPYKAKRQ
Excerpt: (§1) Since the truncated ASXL1 functions as co-activator of BAP1 in human leukemic cells, and based on previous studies, mutations in ASXL1 lead to the hyper-activation of BAP1 in mice (16), we sought to identify small molecule inhibitors that inhibit BAP1 catalytic activity. Although crucial catalytic residues in BAP1 have been identified through general homology with other deubiquitinases, a detailed atomic resolution structure of BAP1 has yet to be determined. Therefore, because a structure-based approach is currently unattainable, we adopted a structure-agnostic unbiased biochemical screen for small molecule inhibitors of BAP1′s deubiquitinase activity. Toward this goal, we employed an Ubiquitin- 7-amino-4-methylcoumarin (Ub-AMC) screening platform. Ubiquitin-AMC (Ub-AMC) is a fluorogenic substrate for ubiquitin hydrolases based on the C-terminus derivatization of ubiquitin with 7-amido-4-methylcoumarin (AMC). Upon incubation with a protease recognizing Ubiquitin, such as BAP1, AMC is released and the increase in fluorescence can be measured (7, 17) (FIG. 4A). We optimized the screening condition and finally used 100 nM Ub-AMC and 0.1 nM recombinant BAP1 (FIG. 10A) for the reaction (FIG. 10B). The top 1% hits from 3,000 of 8-compound mixtures were subjected for a secondary validation (FIG. 10C, D). […]

[1] = test system: 293T-ASXL1-Y591* mutant cells vs 293T-ASXL1-WT cells; test: Cell viability (cell counting) of 293T-ASXL1-WT and 293T-ASXL1-Y591* mutant cells, 72 hours; assay type: cell-based, human; settings: cell counting assay
Procedure: FIG. 11. Analog for compound #7152836 A) Structure of 16 analogs for compound #7152836. B) Dose-dependent inhibition of BAP1 activity the analogs in (A) in Ub-AMC assay. C) 293T-ASXL1-WT, 293T-ASXL1-Y591* mutant cells were treated with different concentrations of Doxorubicin, HSP90 inhibitor PU-H71, UCHLS inhibitor b-AP1 and iBAP for 72 hours. The cell viability was determined by cell counting assay.
as §1, with “Ubiquitin-AMC (Ub-AMC) is a fluorogenic substrate for ubiquitin hydrolases based on the C-terminus derivatization of ubiquitin with 7-amido-4-methylcoumarin (AMC).” left out, “4A).” for “4A). We optimized the screening condition and finally used 100 nM Ub-AMC and 0.1 nM recombinant BAP1 (FIG. 10A) for the reaction (FIG. 10B). The top 1% hits from 3,000 of 8-compound mixtures were subjected for a secondary validation (FIG. 10C, D).”

Row | SMILES | inhibition of BAP1 catalytic activity in vitro (recombinant BAP1) | difference of cell viability between ASXL1 wild type and mutant cells [1]
1 | COc1ccccc1C(=O)NC(=S)Nc1ccc2oc(-c3cc(F)c(F)cc3Cl)nc2c1 [#7231120] | could efficiently inhibit BAP1 catalytic activity | 
2 | C=CC(=O)N1C/C(=C\c2ccc([N+](=O)[O-])cc2)C(=O)/C(=C/c2ccc([N+](=O)[O-])cc2)C1 [UCHLS inhibitor] |  | did not observe any significant difference
